# Reference: US6677350B1, “Beta-fluoroethyl thiourea compounds and use” (priority 1999, dated 2004)
# Like-named read-outs stand apart in the source and are kept apart here.
# System: M. tuberculosis H37Rv (ATCC 27294)
# Experiment: In vitro anti-tuberculosis screening, BACTEC 460 radiometric system, percent inhibition of growth
# Format: cell-based, Mycobacterium tuberculosis
# Conditions: Mtb H37Rv; for inhibition at 12.5 µg/mL: Mycobacterium tuberculosis
smiles,measurement,setting,value
O=C1c2ccccc2OC(c2ccccc2)C1(Br)Br (stereo not shown) [Compound 148],Activity % Inhibition at 12.5 μg/mL (flavanones),"12.5 μg/mL, BACTEC 12B medium",0%
"O=C1C[C@@H](c2ccc(O)cc2)Oc2c1c(O)cc(O[C@@H]1O[C@H](CO)[C@@H](O)[C@H](O)[C@H]1O)c2[C@H]1C(=O)c2c(O)cc(O)cc2O[C@@H]1c1ccc(O)cc1 [Compound 178, Multifloraside]",Activity % Inhibition at 12.5 μg/mL (biflavonoids),"12.5 μg/mL, BACTEC 12B medium",0%
O=c1cc(-c2ccc(I)cc2)oc2ccccc12 [Compound 84],anti-TB activity in words,12.5 μg/mL,weakly active or inactive
same,Activity % Inhibition at 12.5 μg/mL (flavones),"12.5 μg/mL, BACTEC 12B medium",51%
same,inhibition of the growth of Mtb,drug concentration 12.5 μg/mL,51%
O=c1cc(-c2ccccc2O)oc2ccccc12 [Compound 116],Activity % Inhibition at 12.5 μg/mL (flavones),"12.5 μg/mL, BACTEC 12B medium",1%
"COc1ccc([C@@H]2CC(=O)c3c(OC)cc(OC)c([C@H]4C(=O)c5c(OC)cc(OC)cc5O[C@@H]4c4ccc(OC)cc4)c3O2)cc1 [Compound 153, GB-1a hexamethylether]",Activity % Inhibition at 12.5 μg/mL (biflavonoids),"12.5 μg/mL, BACTEC 12B medium",87%
same,inhibition of the growth of Mtb,drug concentration 12.5 μg/mL,87%
COc1ccc(/C=C/C(=O)c2ccccc2F)cc1 [Compound 20],Activity % inhibition at 12.5 μg/mL (chalcones),"12.5 μg/mL, BACTEC 12B medium",82%
O=C1CC(c2ccccc2)Oc2ccc(I)cc21 (stereo not shown) [Compound 139],Activity % Inhibition at 12.5 μg/mL (flavanones),"12.5 μg/mL, BACTEC 12B medium",27%
O=C(/C=C/c1cccc(O)c1)c1ccccc1O [Compound 10],Activity % inhibition at 12.5 μg/mL (chalcones),"12.5 μg/mL, BACTEC 12B medium",18%
COc1cc(O)c(C(=O)/C=C/c2cc(OC)c(OC)c(OC)c2)c(O)c1 [Compound 15],Activity % inhibition at 12.5 μg/mL (chalcones),"12.5 μg/mL, BACTEC 12B medium",0%
COc1ccc(-c2cc(=O)c3c(OC)cc(OC)cc3o2)cc1 [Compound 109],Activity % Inhibition at 12.5 μg/mL (flavones),"12.5 μg/mL, BACTEC 12B medium",12%
COc1ccc(-c2cc(=O)c3ccc(OC)cc3o2)cc1 [Compound 119],Activity % Inhibition at 12.5 μg/mL (flavones),"12.5 μg/mL, BACTEC 12B medium",0%
"O=C1CC(c2ccc(O)cc2)Oc2cc(O)c(-c3c(O)cc(O)c4c3OC(c3ccc(O)cc3)CC4=O)c(O)c21 (stereo not shown) [Compound 168, Rhusflavanone]",Activity % Inhibition at 12.5 μg/mL (biflavonoids),"12.5 μg/mL, BACTEC 12B medium",0%
O=c1c(O)c(-c2ccccc2)oc2c(F)cccc12 [Compound 90],Activity % Inhibition at 12.5 μg/mL (flavones),"12.5 μg/mL, BACTEC 12B medium",43%
COc1ccc(C(=O)/C=C/c2ccccc2)c(O)c1 [Compound 1],Activity % inhibition at 12.5 μg/mL (chalcones),"12.5 μg/mL, BACTEC 12B medium",78%
same,inhibition of the growth of Mtb,drug concentration 12.5 μg/mL,78%
COc1ccc(/C=C/C(=O)c2cc(Cl)ccc2O)cc1 [Compound 29],Activity % inhibition at 12.5 μg/mL (chalcones),"12.5 μg/mL, BACTEC 12B medium",20%
same,inhibition of the growth of Mtb,drug concentration 12.5 μg/mL,20%
O=C(/C=C/c1ccc(I)cc1)c1ccccc1O [Compound 46],Activity % inhibition at 12.5 μg/mL (chalcones),"12.5 μg/mL, BACTEC 12B medium",21%
same,inhibition of the growth of Mtb,drug concentration 12.5 μg/mL,21%
"CC(=O)Oc1ccc(C2Oc3cc(OC(C)=O)cc(OC(C)=O)c3C(=O)C2c2c(OC(C)=O)cc(OC(C)=O)c3c(=O)cc(-c4ccc(OC(C)=O)c(OC(C)=O)c4)oc23)cc1 (stereo not shown) [Compound 175, Morelloflavone heptaacetate]",Activity % Inhibition at 12.5 μg/mL (biflavonoids),"12.5 μg/mL, BACTEC 12B medium",0%
O=c1cc(-c2ccccc2)oc2cc(I)ccc12 [Compound 102],anti-TB activity in words,12.5 μg/mL,weakly active or inactive
same,Activity % Inhibition at 12.5 μg/mL (flavones),"12.5 μg/mL, BACTEC 12B medium",20%
"O=C1C[C@@H](c2ccc(O)c(O)c2)Oc2c1c(O)cc(O)c2[C@H]1C(=O)c2c(O)cc(O)cc2O[C@@H]1c1ccc(O)cc1 [Compound 172, GB-2a]",Activity % Inhibition at 12.5 μg/mL (biflavonoids),"12.5 μg/mL, BACTEC 12B medium",0%
"O=C1c2c(O)cc(O)cc2OC(c2ccc(O)cc2)C1c1c(O[C@@H]2O[C@H](CO)[C@@H](O)[C@H](O)[C@H]2O)cc(O)c2c(=O)cc(-c3ccc(O)cc3)oc12 (stereo partly shown) [Compound 176, Spicataside]",Activity % Inhibition at 12.5 μg/mL (biflavonoids),"12.5 μg/mL, BACTEC 12B medium",0%
COc1cc(OC)c2c(=O)cc(-c3ccc(OC)c(I)c3)oc2c1 [Compound 126],Activity % Inhibition at 12.5 μg/mL (flavones),"12.5 μg/mL, BACTEC 12B medium",0%
O=C(/C=C/c1ccccc1Br)c1ccccc1O [Compound 31],Activity % inhibition at 12.5 μg/mL (chalcones),"12.5 μg/mL, BACTEC 12B medium",83%
same,inhibition of the growth of Mtb,drug concentration 12.5 μg/mL,83%
COc1ccc(-c2cc(=O)c3ccc(F)cc3o2)cc1 [Compound 118],Activity % Inhibition at 12.5 μg/mL (flavones),"12.5 μg/mL, BACTEC 12B medium",0%
O=C(/C=C/c1ccco1)c1ccc(Br)cc1O [Compound 63],Activity % inhibition at 12.5 μg/mL (chalcone-like compounds),"12.5 μg/mL, BACTEC 12B medium",17%
COc1ccc(C2CC(=O)c3cc(C(=O)O)ccc3O2)cc1 (stereo not shown) [Compound 145],Activity % Inhibition at 12.5 μg/mL (flavanones),"12.5 μg/mL, BACTEC 12B medium",0%
Nc1cccc(/C=C/C(=O)c2ccccc2O)c1 [Compound 11],Activity % inhibition at 12.5 μg/mL (chalcones),"12.5 μg/mL, BACTEC 12B medium",11%
COc1ccc(-c2oc3cc(F)ccc3c(=O)c2OC(C)=O)cc1 [Compound 86],Activity % Inhibition at 12.5 μg/mL (flavones),"12.5 μg/mL, BACTEC 12B medium",50%
COc1ccc(C(=O)/C=C/c2ccncc2)cc1 [Compound 70],Activity % inhibition at 12.5 μg/mL (chalcone-like compounds),"12.5 μg/mL, BACTEC 12B medium",0%
"O=c1c(O)c(-c2ccccc2)oc2ccccc12 [Compound 92, 3-hydroxyflavone]",inhibition at 12.5 µg/mL,"12.5 μg/mL, BACTEC 12B medium, read-out: Activity % Inhibition at 12.5 μg/mL (flavones)",38%
same,inhibition at 12.5 µg/mL,"drug concentration 12.5 μg/mL, read-out: inhibition of the growth of Mtb",38%
"CC(=O)Oc1ccc([C@@H]2CC(=O)c3c(cc(OC(C)=O)c(-c4c(OC(C)=O)cc5c(c4OC(C)=O)C(=O)C[C@@H](c4ccc(OC(C)=O)cc4)O5)c3OC(C)=O)O2)cc1 [Compound 174, Succedaneaflavanone hexaacetate]",Activity % Inhibition at 12.5 μg/mL (biflavonoids),"12.5 μg/mL, BACTEC 12B medium",0%
COc1ccc(-c2oc3ccc(C(=O)O)cc3c(=O)c2O)cc1 [Compound 130],Activity % Inhibition at 12.5 μg/mL (flavones),"12.5 μg/mL, BACTEC 12B medium",0%
